Results reported in publication PMC1382195 (The Journal of General Physiology, 2005).

Key:
[1] = target: T1, cystic fibrosis transmembrane conductance regulator (ΔR-CFTR) (Homo sapiens, UniProt P13569, DEL634-836); assay: excised inside-out patch-clamp; assay type: biochemical
[2] = target: T1, cystic fibrosis transmembrane conductance regulator (ΔR-CFTR); assay: excised inside-out patch-clamp, single-channel Po versus [ATP]; assay type: biochemical

T1 sequence (P13569 1-633, stated change not applied): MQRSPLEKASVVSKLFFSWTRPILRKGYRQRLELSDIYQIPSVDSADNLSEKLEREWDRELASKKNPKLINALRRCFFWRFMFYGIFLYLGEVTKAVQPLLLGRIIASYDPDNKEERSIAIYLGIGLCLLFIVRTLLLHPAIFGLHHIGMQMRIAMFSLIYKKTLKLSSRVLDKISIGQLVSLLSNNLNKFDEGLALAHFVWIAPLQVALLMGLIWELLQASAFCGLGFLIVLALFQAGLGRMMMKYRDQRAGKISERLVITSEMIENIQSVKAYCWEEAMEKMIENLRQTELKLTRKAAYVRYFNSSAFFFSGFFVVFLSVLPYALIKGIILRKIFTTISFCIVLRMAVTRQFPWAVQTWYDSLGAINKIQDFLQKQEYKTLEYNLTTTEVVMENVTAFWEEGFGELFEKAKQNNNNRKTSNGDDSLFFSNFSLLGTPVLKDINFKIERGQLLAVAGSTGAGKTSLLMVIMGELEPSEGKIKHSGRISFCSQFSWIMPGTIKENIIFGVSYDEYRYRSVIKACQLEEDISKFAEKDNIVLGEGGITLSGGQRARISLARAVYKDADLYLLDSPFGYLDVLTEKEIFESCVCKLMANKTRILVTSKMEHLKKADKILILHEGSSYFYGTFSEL
T1 sequence (P13569 837-1480, stated change not applied): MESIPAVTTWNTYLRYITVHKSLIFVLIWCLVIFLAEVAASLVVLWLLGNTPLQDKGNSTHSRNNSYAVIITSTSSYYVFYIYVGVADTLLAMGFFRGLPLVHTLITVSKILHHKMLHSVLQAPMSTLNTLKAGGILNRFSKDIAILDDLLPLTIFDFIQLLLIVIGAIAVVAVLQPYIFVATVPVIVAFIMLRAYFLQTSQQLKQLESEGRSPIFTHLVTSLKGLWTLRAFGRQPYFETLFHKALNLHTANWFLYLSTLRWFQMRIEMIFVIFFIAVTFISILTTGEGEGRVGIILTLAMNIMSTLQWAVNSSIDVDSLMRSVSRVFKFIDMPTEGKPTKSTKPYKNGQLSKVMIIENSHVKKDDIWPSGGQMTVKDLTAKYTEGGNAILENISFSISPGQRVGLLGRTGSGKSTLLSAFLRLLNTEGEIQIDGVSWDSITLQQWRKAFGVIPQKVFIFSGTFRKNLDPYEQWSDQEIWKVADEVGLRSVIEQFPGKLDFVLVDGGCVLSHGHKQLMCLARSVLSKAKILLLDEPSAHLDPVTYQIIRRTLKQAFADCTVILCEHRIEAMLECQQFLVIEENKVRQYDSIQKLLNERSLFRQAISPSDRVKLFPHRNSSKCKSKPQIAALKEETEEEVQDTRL

Ki [1]	EC50 [2]	Compound
26.3 ± 5.1 µM	–	Nc1ncnc2c1ncn2[C@@H]1O[C@H](COP(=O)(O)OP(=O)(O)O)[C@@H](O)[C@H]1O [ADP]
–	89 ± 25 µM	Nc1ncnc2c1ncn2[C@@H]1O[C@H](COP(=O)(O)OP(=O)(O)OP(=O)(O)O)[C@@H](O)[C@H]1O [ATP]
